Measurements: patent US20170340693A1, “DISLODGEMENT AND RELEASE OF HSC USING ALPHA 9 INTEGRIN ANTAGONIST AND CXCR4 ANTAGONIST” (COMMONWEALTH SCIENTIFIC AND INDUSTRIAL RESEARCH ORGANISATION, priority 2014, published 2017)
Structures can show the parent of a compound that is named as a salt.

Key:
LPP-CFC and HPP-CFC = assay: Low- and high-proliferative potential colony-forming cell assays of mobilized PB; set-up: species or system mice; conditions: mouse, in vivo
Description: Low- and high-proliferative potential colony-forming cells (LPP-CFC and HPP-CFC, respectively) were assayed as previously described in J. Grassinger et al Cytokine, 2012, 58, 218-225 and Bartelmez, S. H. et al Experimental hematology 17, 240-245 (1989). Briefly, mobilized PB were lysed and 4000 WBCs were plated in 35 mm Petri dishes in a double-layer nutrient agar culture system containing recombinant mouse stem cell factor and recombinant human colony-stimulating factor-1, interleukin-1α (IL-1α), and IL-3. Cultures were incubated at 37° C. in a humidified incubator at 5% O2, 10% CO2, 85% N2. LPP-CFC and HPP-CFC were enumerated at 14 days of incubation as previously described in J. Grassinger, et al (2012).

[1] = system: progenitors (LSK) and HSC (LSKSLAM) in peripheral blood; assay: HSC mobilization to peripheral blood in mice; assay type: in vivo
Description: (§1) For mobilization experiments, all mice received subcutaneous injections at 100 μl/10 gm body weight and PB was harvested by throat bleed using EDTA coated syringes.
(a) R-BC154 (IXb) and BOP. Mice received a single injection of freshly prepared solutions of R-BC154 (IXb) and BOP in saline at the doses indicated before PB was harvested by throat bleed at the times indicated.
(b) G-CSF. Mice received G-CSF at 250 μg/kg twice daily (500 ug/kg/day), 6-8 hours apart for 4 consecutive days. Groups receiving G-CSF and BOP received the standard G-CSF regime as described above followed by a single injection of BOP 1 h prior to harvest. Control mice received an equal volume of saline.
(§2) Mice received subcutaneous injections at 100 μl/10 gm body weight of a single injection of BOP (up to 15 mg/kg) for various timeframes, a single BIO5192 injection at 1 mg/kg for 1 hour, a single AMD3100 injection at 3 mg/kg for 1 hour (mice also receiving BOP or BIO15192 were injected with a single dose of BOP or BIO15192 1 hour prior to harvest), or G-CSF at 250 μg/kg twice daily (500 μg/kg/day), 6-8 hours apart for 4 consecutive days (mice also receiving BOP and/or AMD3100 were injected with a single dose of BOP and/or AMD3100 1 h prior to harvest). Control mice received an equivalent volume of saline or 10% HPβCD/saline where appropriate.

[2] = system: human WBC and human CD34+ stem and progenitors; assay: Mobilization of humanised NSG (huNSG) mice; assay type: in vivo; conditions: single dose, G-CSF multiple doses for 4-days
Text: Humanised NSG mice were generated by tail vein injection of freshly sorted cord blood CD34^+ cells (>150 k) with 2×10^6 irradiated mononuclear support cells. After 4-weeks post-transplantation, NSG mice were eyebled and assessed for huCD45 and muCD45. Under these conditions, >90% humanisation was achieved as determined by flow cytometric analysis based on % huCD45 relative to total % CD45. Humanised NSG mice were given at least 1 week to recover prior to experimentation. Mice were mobilized under the relevant conditions specified in “Mobilization protocols” and PB subsequently collected by throatbleed, lysed and immunolabelled as described in “Antibody cocktails”.
as §2

WBC in peripheral blood = assay: PB white blood cell / lymphocyte content after mobilization; assay type: in vivo, mice; conditions: for WBC counts: peripheral blood after administration
Description: as §1, §2

α4β1 = α4β1 (Homo sapiens, UniProt P05556+P13612); conditions: cited from earlier work
Chain of α4β1 (P13612 34-1032): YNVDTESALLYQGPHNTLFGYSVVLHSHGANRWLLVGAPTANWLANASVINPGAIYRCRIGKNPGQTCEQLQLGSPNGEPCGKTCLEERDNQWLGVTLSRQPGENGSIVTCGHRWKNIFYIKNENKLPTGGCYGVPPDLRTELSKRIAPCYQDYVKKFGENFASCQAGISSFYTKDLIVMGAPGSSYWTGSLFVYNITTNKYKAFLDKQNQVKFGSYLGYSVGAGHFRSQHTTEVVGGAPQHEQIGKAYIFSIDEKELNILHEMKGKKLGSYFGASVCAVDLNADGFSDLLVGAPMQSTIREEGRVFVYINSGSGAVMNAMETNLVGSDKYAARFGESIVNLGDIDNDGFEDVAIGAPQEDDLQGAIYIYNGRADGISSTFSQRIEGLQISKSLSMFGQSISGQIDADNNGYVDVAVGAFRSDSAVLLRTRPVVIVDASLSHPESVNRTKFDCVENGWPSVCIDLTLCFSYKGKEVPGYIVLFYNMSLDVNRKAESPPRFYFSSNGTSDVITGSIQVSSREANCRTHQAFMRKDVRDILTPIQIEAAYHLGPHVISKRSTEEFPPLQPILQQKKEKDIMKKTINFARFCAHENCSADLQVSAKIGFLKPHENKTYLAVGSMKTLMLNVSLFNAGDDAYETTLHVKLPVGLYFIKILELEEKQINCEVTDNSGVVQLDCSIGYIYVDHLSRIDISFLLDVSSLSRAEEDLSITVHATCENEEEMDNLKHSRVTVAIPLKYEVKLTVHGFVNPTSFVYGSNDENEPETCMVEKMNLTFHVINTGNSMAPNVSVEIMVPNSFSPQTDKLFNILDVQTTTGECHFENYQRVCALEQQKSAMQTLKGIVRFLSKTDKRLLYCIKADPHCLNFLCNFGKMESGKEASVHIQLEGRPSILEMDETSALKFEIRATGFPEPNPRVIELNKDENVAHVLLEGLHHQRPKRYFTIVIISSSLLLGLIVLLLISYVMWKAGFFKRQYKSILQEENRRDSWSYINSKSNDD
Chain of α4β1 (P05556 21-798): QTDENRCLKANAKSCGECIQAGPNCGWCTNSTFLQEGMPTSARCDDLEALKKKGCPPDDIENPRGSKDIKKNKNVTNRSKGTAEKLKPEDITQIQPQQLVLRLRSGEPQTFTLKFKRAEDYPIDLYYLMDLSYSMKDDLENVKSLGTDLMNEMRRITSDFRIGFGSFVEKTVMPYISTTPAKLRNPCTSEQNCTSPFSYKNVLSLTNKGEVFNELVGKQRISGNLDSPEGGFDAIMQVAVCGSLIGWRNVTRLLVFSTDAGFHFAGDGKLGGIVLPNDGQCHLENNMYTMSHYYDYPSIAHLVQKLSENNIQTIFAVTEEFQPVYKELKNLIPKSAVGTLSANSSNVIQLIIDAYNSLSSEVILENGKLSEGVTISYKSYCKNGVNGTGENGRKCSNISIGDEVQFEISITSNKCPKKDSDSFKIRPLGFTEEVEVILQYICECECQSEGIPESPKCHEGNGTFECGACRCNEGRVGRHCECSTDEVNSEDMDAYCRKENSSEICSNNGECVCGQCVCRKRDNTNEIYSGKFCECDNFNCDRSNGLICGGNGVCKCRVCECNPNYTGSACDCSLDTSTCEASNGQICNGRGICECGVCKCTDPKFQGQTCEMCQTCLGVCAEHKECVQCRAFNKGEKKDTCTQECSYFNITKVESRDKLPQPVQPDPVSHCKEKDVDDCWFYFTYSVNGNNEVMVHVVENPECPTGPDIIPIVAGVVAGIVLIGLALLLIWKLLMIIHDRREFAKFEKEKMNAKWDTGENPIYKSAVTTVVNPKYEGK

α9β1 = target: T1, α9β1 (Homo sapiens, UniProt P05556+Q13797); assay: Inhibition of R-BC154 (IXb) binding, transduced LN18 cells and CHO cells, flow cytometry; set-up: species or system human and murine; conditions: R-BC154 100 nM, antagonist 1 μM, 1 mM CaCl2MgCl2, 0° C. 30 min
T1 construct: expressed in transfected cells; host or cells: LN18 (ATCC CRL-2610), retrovirally transduced; endogenous α4 silenced with pSM2c-shITGA4
T1 sequence (Q13797 30-1035): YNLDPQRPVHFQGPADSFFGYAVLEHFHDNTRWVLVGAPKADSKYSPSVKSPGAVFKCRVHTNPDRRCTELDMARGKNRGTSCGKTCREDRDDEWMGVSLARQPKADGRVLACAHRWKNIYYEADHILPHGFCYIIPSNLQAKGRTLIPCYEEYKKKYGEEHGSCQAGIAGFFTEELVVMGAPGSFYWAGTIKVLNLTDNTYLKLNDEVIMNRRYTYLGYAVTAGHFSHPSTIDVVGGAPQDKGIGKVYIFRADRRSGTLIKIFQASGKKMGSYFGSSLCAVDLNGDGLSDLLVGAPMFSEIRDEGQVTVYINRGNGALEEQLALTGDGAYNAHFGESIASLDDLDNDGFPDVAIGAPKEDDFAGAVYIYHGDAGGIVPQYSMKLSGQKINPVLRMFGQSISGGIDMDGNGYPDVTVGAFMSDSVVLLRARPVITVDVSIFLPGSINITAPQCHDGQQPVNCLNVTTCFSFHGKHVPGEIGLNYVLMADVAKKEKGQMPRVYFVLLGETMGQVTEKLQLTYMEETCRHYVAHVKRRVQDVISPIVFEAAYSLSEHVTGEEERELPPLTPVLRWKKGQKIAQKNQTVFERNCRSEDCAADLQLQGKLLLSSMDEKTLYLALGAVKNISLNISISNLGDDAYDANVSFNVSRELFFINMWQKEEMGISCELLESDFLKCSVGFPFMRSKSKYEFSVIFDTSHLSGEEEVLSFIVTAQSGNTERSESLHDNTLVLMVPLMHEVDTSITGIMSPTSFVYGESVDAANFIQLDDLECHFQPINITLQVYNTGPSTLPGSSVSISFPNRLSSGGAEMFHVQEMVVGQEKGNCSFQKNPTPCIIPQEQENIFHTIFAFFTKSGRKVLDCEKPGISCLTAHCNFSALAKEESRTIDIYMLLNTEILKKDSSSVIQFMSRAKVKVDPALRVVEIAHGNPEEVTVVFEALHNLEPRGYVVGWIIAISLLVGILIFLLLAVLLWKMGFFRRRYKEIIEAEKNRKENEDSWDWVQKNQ
T1 sequence (P05556 21-798): as the sequence (P05556 21-798) above
Description: (§3) For the assessment of α9β1 contribution to R-BC154 (IXb) binding, human and murine cells were stained with R-BC154 (100 nM) in the absence of competing antagonist or in the presence of excess amounts of the selective α4β1 antagonist BIO5192 (1 μM) or dual α4β1/α9β1 antagonist BOP (1 μM) in PBS containing 0.5% BSA and 1 mM CaCl2MgCl2 at 0° C. for 30 min. Cells were washed, immunolabelled as described above and analysed by flow cytometry. The contribution of α9β1 binding was calculated by measuring the difference in MFI between R-BC154 (IXb)+BIO5192 and +BOP and expressed as a % of R-BC154 (IXb) alone.

[3] = system: cord blood (CB) mononuclear cells (MNC); assay: R-BC154 (IXb) binding to cord blood mononuclear cell populations, flow cytometry; assay type: cell-based, human; conditions: R-BC154 (100 nM) in the presence of excess selective α4β1 antagonist BIO5192 (1 μM) or dual α4β1/α9β1 antagonist BOP (1 μM)
Description: For in vitro labelling experiments, 5×10^6 BM cells from C57 mice, conditional α4^−/−/α9^−/− mice and humanised NODSCIDIL2Rγ^−/− mice and human cord blood MNCs were treated with R-BC154 (IXb) (up to 300 nM) in PBS (0.5% BSA) or TBS (0.5% BSA) containing either 1 mM CaCl2/MgCl2 (activating) or 10 mM EDTA (deactivating) at 40×10^6 cells/ml for 20 mins at 4° C. Cells were washed with cold PBS (2% FBS) and then immunolabelled as described in “Antibody Cocktails” prior to flow cytometric analysis. For in vivo experiments, C57BL/6 mice, α4^−/−/α9^−/− vav-cre mice and humanised NODSCIDIL2Rγ^−/− mice received either intravenous or subcutaneous injections of R-BC154 (IXb) (5-10 mg/kg) at 100 ul/10 gm mouse weight and analysed as described above.
as §3

α9β1 integrin = α9β1 integrin (Homo sapiens, UniProt P05556+Q13797); assay: Inhibition of integrin binding to VCAM-1 and Opn in vitro
Chain of α9β1 integrin (Q13797 30-1035): as the sequence (Q13797 30-1035) above
Chain of α9β1 integrin (P05556 21-798): as the sequence (P05556 21-798) above

α4β1 or α9β1 LN18 cells = conditions: Pepinsky et al (2002); cited from earlier work
endosteal LSK = assay: In vivo BOP binding to endosteal versus central progenitors; set-up: species or system mice; conditions: mouse
Description: Data is pooled from two independent experiments. n>6 (e) Analysis of in vivo BOP binding to endosteal versus central progenitors (LSK) and HSC (LSKSLAM) following the administration of BOP alone or BOP in combination with AMD3100. […] P<0.05

α4β1 integrin = α4β1 integrin (Homo sapiens, UniProt P05556+P13612); assay: Inhibition of integrin binding to VCAM-1 and Opn in vitro
Chain of α4β1 integrin (P13612 34-1032): as the sequence (P13612 34-1032) above
Chain of α4β1 integrin (P05556 21-798): as the sequence (P05556 21-798) above

c1cc(CN2CCCNCCNCCCNCC2)ccc1CN1CCCNCCNCCCNCC1 [AMD3100, I,r-[I,4-Phenylenebis(methylene)]bis [1,4,8,11-tetraazacyclotetradecane]octohydrobromide dehydrate, reference compound]
HPP-CFC content of mobilized PB relative to the saline control (LPP-CFC and HPP-CFC): greater | LPP-CFC content of mobilized PB relative to the saline control (LPP-CFC and HPP-CFC): greater | increase in the proportion of progenitors (LSK cells) in the PB relative to BOP ([1]; mouse, in vivo): comparable increases | increase in PB human WBC or human CD34 stem and progenitors [2]: did not result in a significant increase | WBC counts (WBC in peripheral blood): 7.8±1.5 ×10^6/ml

Cc1ccccc1NC(=O)Nc1ccc(CC(=O)N(C)[C@@H](CC(C)C)C(=O)NCC[C@H](NC(=O)[C@@H]2CCCN2S(=O)(=O)c2cc(Cl)cc(Cl)c2)C(=O)O)cc1 [BIO5192, reference compound]
Kd (α4β1): < 0.01 nM | increases in WBC counts, progenitors (LSK) and HSC (LSKSLAM) in the PB ([1]; Intravenous administration, alone): moderate increases | inhibition of R-BC154 (IXb) binding to α9β1 (α9β1): did not inhibit | inhibition of R-BC154 (IXb) binding to CB HSC and progenitors [3]: partial inhibition | inhibition of R-BC154 (IXb) binding to CB lineage committed cells [3]: complete inhibition

O=C(O)[C@H](Cc1ccc(OC(=O)N2CCCC2)cc1)NC(=O)[C@@H]1CCCN1S(=O)(=O)c1ccccc1 [BOP, N-(Benzenesulfonyl)-L-prolyl-L-O-(1-pyrrolidinylcarbonyl)tyrosine]
HPP-CFC content of mobilized PB relative to the saline control (LPP-CFC and HPP-CFC): greater | LPP-CFC content of mobilized PB relative to the saline control (LPP-CFC and HPP-CFC): greater | inhibitory potency, α9β1 binding to VCAM-1 and Opn (α9β1 integrin): nanomolar inhibitory potencies | off-rates for α9β1 compared to α4β1 (α4β1 or α9β1 LN18 cells): significantly reduced off-rates | time of peak PB HSC ([1]; mouse, in vivo): 1 h | increase in the proportion of HSC (LSKSLAM cells) in the PB relative to AMD3100 ([1]; p<0.05): significantly greater increase | increase in PB progenitors (LSK) and HSC (LSKSLAM) ([1]; single agent, single dose): rapid, significant and dose dependent increase | return of PB progenitors and HSC to baseline post-administration ([1]; single dose): ≤ 4 h | time of peak PB progenitors and HSC after a single dose ([1]; subcutaneous): 60 min | binding of BOP to endosteal LSK relative to their central counterparts in vivo (endosteal LSK): significantly greater binding of BOP | inhibition of R-BC154 (IXb) binding to α9β1 (α9β1): > 95% | increase in PB human WBC or human CD34 stem and progenitors [2]: did not result in a significant increase | inhibition of R-BC154 (IXb) binding to all CB cell populations [3]: complete inhibition | WBC counts (WBC in peripheral blood): 7.0±0.8 ×10^6/ml | total PB lymphocytes decreased to baseline (WBC in peripheral blood; single dose): ≤ 18 h | inhibitory potency, α4β1 binding to VCAM-1 and Opn (α4β1 integrin): nanomolar inhibitory potencies

B1: G-CSF: recombinant granulocyte-colony stimulating factor (protein, UniProt P09919 31-207, looked up)
Granulocyte …: TPLGPASSLPQSFLLKCLEQVRKIQGDGAALQEKLVSECATYKLCHPEELVLLGHSLGIPWAPLSSCPSQALQLAGCLSQLHSGLFLYQGLLQALEGISPELGPTLDTLQLDVADFATTIWQQMEELGMAPALQPTQGAMPAFASAFQRRAGGVLVASHLQSFLEVSYRVLRHLAQP
progenitors mobilized, G-CSF alone versus single dose of BOP and AMD3100 ([1]; 4-days of G-CSF): significantly greater number of progenitors | increase in PB human WBC or human CD34 stem and progenitors [2]: did not result in a significant increase
